How the values were obtained:
[1] = Acute toxicity in Albino Swiss CD-1 mouse assessed as mortality at 500 mg/kg, ip measured after 72 hrs relative to control; type: organism-based; conditions: in vivo
[2] = Acute toxicity in Albino Swiss CD-1 mouse assessed as mortality at 250 mg/kg, ip measured after 72 hrs relative to control; type: organism-based; conditions: in vivo
[3] = tested on: Mus musculus; test: (§1) Analgesic activity in formalin-induced nociception Albino Swiss CD-1 mouse model assessed as time spent on licking formalin injected hind paw during inflammatory phase at 5 mg/kg, ip pretreated for 30 mins followed by formalin induction measured after 15 to 30 mins (reference value: 138.5 +/- 8.55 s); type: functional
[4] = Acute toxicity in Albino Swiss CD-1 mouse assessed as mortality at 1000 mg/kg, ip measured after 72 hrs relative to control; type: organism-based; conditions: in vivo
[5] = tested on: Mus musculus; test: Potency index, ratio of piroxicam ED50 to test compound ED50 for analgesic activity in ip dosed formalin-induced nociception Albino Swiss CD-1 mouse model assessed as reduction in time spent on licking formalin injected hind paw during inflammatory phase; type: functional
[6] = Neurotoxicity in Albino Swiss CD-1 mouse assessed as motor impairment at 20 mg/kg, ip measured for 1 min at 6 to 24 rpm by rotarod test; type: toxicity, organism-based; conditions: in vivo
[7] = tested on: Mus musculus; test: Analgesic activity in formalin-induced nociception Albino Swiss CD-1 mouse model assessed as time spent on licking formalin injected hind paw during neurogenic phase at 5 mg/kg, ip pretreated for 30 mins followed by formalin induction measured up to 5 mins (reference value: 60.23 +/- 5.12 s); type: functional
[8] = Acute toxicity in ip dosed Albino Swiss CD-1 mouse measured for 24 hrs; type: organism-based; conditions: in vivo
[9] = tested on: Mus musculus; test: Analgesic activity in ip dosed formalin-induced nociception Albino Swiss CD-1 mouse model assessed as reduction in time spent on licking formalin injected hind paw during inflammatory phase pretreated for 30 mins followed by formalin induction measured after 15 to 30 mins; type: functional; conditions: Swiss CD-1, ip
[10] = tested on: Mus musculus; test: Analgesic activity in formalin-induced nociception Albino Swiss CD-1 mouse model assessed as time spent on licking formalin injected hind paw during neurogenic phase at 10 mg/kg, ip pretreated for 30 mins followed by formalin induction measured up to 5 mins (reference value: 60.23 +/- 5.12 s); type: functional
[11] = tested on: Mus musculus; test: Analgesic activity in ip dosed formalin-induced nociception Albino Swiss CD-1 mouse model assessed as reduction in time spent on licking formalin injected hind paw during neurogenic phase pretreated for 30 mins followed by formalin induction measured up to 5 mins; type: functional; conditions: Swiss CD-1, ip
[12] = tested on: Mus musculus; test: as §1, with “at 10” for “at 5”; type: functional
[13] = tested on: Mus musculus; test: as §1, with “at 20” for “at 5”; type: functional
[14] = tested on: Mus musculus; test: Sedative activity in ip dosed Albino Swiss CD-1 mouse assessed as effect on locomotor activity by measuring reduction in number of light beam crossings treated for 30 mins measured for next 30 mins; type: organism-based; conditions: in vivo, 0.5 h
[15] = tested on: Mus musculus; test: Analgesic activity in formalin-induced nociception Albino Swiss CD-1 mouse model assessed as time spent on licking formalin injected hind paw during neurogenic phase at 20 mg/kg, ip pretreated for 30 mins followed by formalin induction measured up to 5 mins (reference value: 60.23 +/- 5.12 s); type: functional
[16] = Acute toxicity in Albino Swiss CD-1 mouse assessed as mortality at 2000 mg/kg, ip measured after 72 hrs relative to control; type: organism-based; conditions: in vivo
[17] = Ulcerogenic activity in Wistar (Krf:(WI) WU) rat assessed as change in gastric mucosa at 25 mg/kg measured after 24 hrs by stereo microscopic analysis; type: toxicity, organism-based; conditions: in vivo
[18] = tested on: Mus musculus; test: Analgesic activity in formalin-induced nociception Albino Swiss CD-1 mouse model assessed as time spent on licking formalin injected hind paw during neurogenic phase at 30 mg/kg, ip pretreated for 30 mins followed by formalin induction measured up to 5 mins (reference value: 60.23 +/- 5.12 s); type: functional
[19] = tested on: Mus musculus; test: as §1, with “at 30” for “at 5”; type: functional

| SMILES | mortality at 72 h [1] [%] | mortality at 72 h [2] [%] | Time [3] [s] | mortality at 72 h [4] [%] | Ratio ED50 [5] | Activity [6] | Time [7] [s] | LD50 at 24 h [8] [mg/kg] | ED50 [9] [mg/kg] | Time [10] [s] | ED50 [11] [mg/kg] | Time [12] [s] | Time [13] [s] | ED50 [14] [mg/kg] | Time [15] [s] | mortality at 72 h [16] [%] | Activity [17] | Time [18] [s] | Time [19] [s] |
| --- | --- | --- | --- | --- | --- | --- | --- | --- | --- | --- | --- | --- | --- | --- | --- | --- | --- | --- | --- |
| O=C(C1=C(O)c2ccccc2S(=O)(=O)N1CC(=O)N1CCN(c2ccccc2)CC1)c1ccccc1 | 50 | 16.7 | 81.13 | 83.3 | 2 - 5 | Non-Toxic | 41.17 | 500 | 8.85 | 34.29 | 13.9 | 68.86 | 49.71 | 31.55 | 25.83 |  |  |  |  |
| Cc1ccc(C(=O)C2=C(O)c3ccccc3S(=O)(=O)N2CCCN2CCN(c3ccccc3)CC2)cc1 |  |  | 62.57 |  | 2 - 5 | Non-Toxic | 59 | > 2000 | 4.01 | 51.17 |  | 55.86 | 35.33 | 35.42 | 47.67 | 0 |  |  |  |
| Cc1ccc(C(=O)C2=C(O)c3ccccc3S(=O)(=O)N2CC(=O)N2CCN(c3ccccc3)CC2)cc1 | 66.7 | 0 | 90 | 83.3 | 2 - 5 | Non-Toxic | 44.86 | 569 | 7.22 | 39.75 | 22.8 | 46.86 | 28.86 | 40.34 | 31 |  | Non-Toxic |  |  |
| O=C(C1=C(O)c2ccccc2S(=O)(=O)N1CCCN1CCN(c2cccc(C(F)(F)F)c2)CC1)c1ccccc1 |  |  | 78.5 |  | 2 - 5 | Non-Toxic | 51.5 | > 2000 | 7.14 | 42.86 | 27 | 59.17 | 48.6 | 38.41 | 35.11 | 0 |  |  |  |
| O=C(C1=C(O)c2ccccc2S(=O)(=O)N1CC(=O)N1CCN(c2ncccn2)CC1)c1ccc(Br)cc1 |  |  | 81.63 |  | 2 - 5 | Non-Toxic | 44.5 | > 2000 | 8.25 | 31.38 | 11.9 | 63.75 | 48.6 | 29.89 | 22.44 | 0 | Non-Toxic |  |  |
| O=C(C1=C(O)c2ccccc2S(=O)(=O)N1CCCN1CCN(c2ccccc2)CC1)c1ccccc1 |  |  | 71.6 |  | 2 - 5 | Non-Toxic | 40 | > 2000 | 6.18 | 28.25 | 11.6 | 63 | 44.14 | 34.12 | 26.29 | 0 |  |  |  |
| COc1ccccc1N1CCN(C(=O)CN2C(C(=O)c3ccccc3)=C(O)c3ccccc3S2(=O)=O)CC1 |  |  | 77.29 |  | 2 - 5 | Non-Toxic | 50.71 | > 2000 | 7.93 | 45.63 |  | 63.13 | 55.71 | 32.1 | 38.29 | 0 |  |  |  |
| COc1ccccc1N1CCN(CCCN2C(C(=O)c3ccccc3)=C(O)c3ccccc3S2(=O)=O)CC1 |  |  | 92.17 |  | 2 - 5 | Non-Toxic | 55.83 | > 2000 | 9.03 | 55.71 |  | 68.17 | 35.86 | 33.18 | 51.4 | 0 |  |  |  |
| O=C(C1=C(O)c2ccccc2S(=O)(=O)N1CC(=O)N1CCN(c2ccccc2)CC1)c1ccc(F)cc1 | 0 |  | 75.78 | 66.7 | 2 - 5 | Non-Toxic | 44.8 | 957 | 6.24 | 32 | 12.8 | 55.29 | 30.67 | 26.15 | 24.25 | 100 | Non-Toxic |  |  |
| CN1C(C(=O)Nc2ccccn2)=C(O)c2ccccc2S1(=O)=O [PIROXICAM] |  |  | 116.1 |  |  |  | 61.31 | 360 | 18.9 | 58.71 |  | 108.25 | 67.43 |  | 59.16 |  | Toxic | 49.75 | 37.57 |

— ChEMBL document CHEMBL4316618, “Synthesis and pharmacological evaluation of novel arylpiperazine oxicams derivatives as potent analgesics without ulcerogenicity” (Bioorg Med Chem, 2019)
